The values below come from patent publication US20150362482A1 (priority 2013, published 2015).

Format in all cases: cell-based, mouse
For assay [1], the system named is networked ESN cultures.
Assay [2] relates to ESNs.
The subject of assay [3] is iGluR.
For assay [4], the system named is GABARA.

`Nc1ccncc1N` [3,4-DAP, 3,4-diaminopyridine]: the “network behaviour in simultaneous dual intracellular recordings” value in assay [1] is on record as “rapid transition to a synchronized bursting behavior”.

In the case of `NCCCC(=O)O` [GABA], the “effect on spontaneous network activity” value in assay [1] is “silenced spontaneous network activity”.

Turning to `NC1=N[C@H](O)[C@H]2[C@H]3O[C@]4(O)O[C@@H]([C@@H](O)[C@@]2(N1)[C@@H]4O)[C@]3(O)CO` [TTX, tetrodotoxin], the excitatory post-synaptic currents entry in assay [2] is on record as “blocked”.

For `N[C@@H](CCC(=O)O)C(=O)O` [glutamate], the agonist-induced current result in assay [3] is “multiphasic inward current”.

As to `NCc1cc(=O)[nH]o1` [muscimol], the agonist-induced current result in assay [4] is recorded as “large desensitizing Cl-current”.
